How the values were obtained:
Assay type in all cases: cell-based
[1] = test system: Pichia guilliermondii wild type and regulatory mutants (rib81); assay: Sensitivity after electroporation to K2Cr2O7, medium with 0.5% glycerol (Table 21); details: Cr^+6 250–350 μM, 0.6 M KCl
From the text: The possibility for positive selection of P. guilliermondii rib81 transformants unable to overproduce riboflavin in minimal medium was studied. For this, the toxicity of K2Cr2O7 (Cr^+6) was compared for the P. guilliermondii wild-type strain ATCC 9058 and regulatory mutants P. guilliermondii rib81 9-20 and 20-2. The cells were pregrown in liquid YPD to OD 1.5–2.0 (540 nm) and electroporated according to the protocol described (Example 34). Electroporated cells were washed three times with 10×volume of 0.6 M KCl and then the volume was adjusted to 1 ml. Then the cells were plated at 0.2 ml suspension per plate which contained 0.5% glycerol, 0.6 M KCl and K2Cr2O7 (50–1000 μM).
The visual selection of the non-overproducing riboflavin transformants is rather arbitrary and uncertain. Therefore it was decided to develop the method for positive selection of the transformants using tentative differences in sensitivity to K2Cr2O7 of wild-type P. guilliermondii and the regulatory mutants rib81 9-20 and 20-2. After 6 days of cultivation in the medium with 0.5% glycerol, it was shown that K2Cr2O7 at 150–180 μM inhibited growth of regulatory mutant 9-20 more strongly than that of the wild strain (Table 21).

[2] = test system: Pichia guilliermondii wild type and regulatory mutants (rib81); assay: Sensitivity after electroporation to K2Cr2O7, Burkholder medium with 0.3 M sucrose (Table 22); details: Cr^+6 100 to 600 μM
[3] = test system: Candida famata regulatory mutants able to overproduce riboflavin; assay: Sensitivity to Co^+2 ions, solid Burkholder medium (Table 16); design: key: +++: strong growth; ++: weak growth; —: absence of growth
Protocol: The sensitivity of the regulatory mutants of the yeast C. famata which overproduce riboflavin in iron rich medium probably due to defects in genes regulating repression (repression mutants), to different ions of heavy metals was studied. For this, the analyzed strains were streaked on the YPD plates and then were replica-plated on Burkholder synthetic medium containing leucine (40 μg/ml). The C.famata mutants L20105-40-1-11, L20105-40-1-17, L20105-3-2-1, L20105-3-2-8 and L20105-3-2-12 (all contained leu2 marker) accumulated 80–100 μg riboflavin/ml. The mutants #75, 4-48, 2-5 produced much higher amounts of riboflavin (200–250 μg/ml) but were prototrophs for leucine synthesis. Strain #75 was characterized by retarded growth comparing with other mutants. The strains VKM Y-9 (wild type) and L20105 (leu2) were used as the control strains.

[K+].[K+].[O]=[Cr](=[O])([O-])[O][Cr](=[O])(=[O])[O-] [K2Cr2O7]
only slightly depressed: growth of wild-type strain P. guilliermondii ATCC 9058 [1]
no differences in sensitivity: difference in sensitivity between regulatory mutants and the wild type [2]

[Cl-].[Cl-].[Co+2] [CoCl2]
++: growth ([3]; #2-5, Co^+2 2.5 μg/ml) | growth ([3]; #4-48, Co^+2 2.5 μg/ml) | growth ([3]; #75, Co^+2 1.25 μg/ml) | growth ([3]; L20105 (leu2), Co^+2 11.25 μg/ml) | growth ([3]; L20105 (leu2), Co^+2 12.5 μg/ml) | growth ([3]; L20105-3-2-1, Co^+2 2.5 μg/ml) | growth ([3]; L20105-3-2-8, Co^+2 2.5 μg/ml) | growth ([3]; L20105-3-2-9, Co^+2 2.5 μg/ml) | growth ([3]; L20105-3-2-12, Co^+2 2.5 μg/ml) | growth ([3]; L20105-40-1-11, Co^+2 2.5 μg/ml)
+++: growth ([3]; #2-5, Co^+2 1.25 μg/ml) | growth ([3]; #4-48, Co^+2 1.25 μg/ml) | growth ([3]; L20105 (leu2), Co^+2 1.25 μg/ml) | growth ([3]; L20105 (leu2), Co^+2 2.5 μg/ml) | growth ([3]; L20105 (leu2), Co^+2 3.75 μg/ml) | growth ([3]; L20105 (leu2), Co^+2 5.0 μg/ml) | growth ([3]; L20105 (leu2), Co^+2 6.25 μg/ml) | growth ([3]; L20105 (leu2), Co^+2 7.5 μg/ml) | growth ([3]; L20105 (leu2), Co^+2 8.75 μg/ml) | growth ([3]; L20105 (leu2), Co^+2 10 μg/ml) | growth ([3]; L20105-3-2-1, Co^+2 1.25 μg/ml) | growth ([3]; L20105-3-2-8, Co^+2 1.25 μg/ml) | growth ([3]; L20105-3-2-9, Co^+2 1.25 μg/ml) | growth ([3]; L20105-3-2-12, Co^+2 1.25 μg/ml) | growth ([3]; L20105-40-1-11, Co^+2 1.25 μg/ml) | growth ([3]; VKM Y-9, Co^+2 1.25 μg/ml) | growth ([3]; VKM Y-9, Co^+2 2.5 μg/ml) | growth ([3]; VKM Y-9, Co^+2 3.75 μg/ml) | growth ([3]; VKM Y-9, Co^+2 5.0 μg/ml) | growth ([3]; VKM Y-9, Co^+2 6.25 μg/ml) | growth ([3]; VKM Y-9, Co^+2 7.5 μg/ml) | growth ([3]; VKM Y-9, Co^+2 8.75 μg/ml) | growth ([3]; VKM Y-9, Co^+2 10 μg/ml) | growth ([3]; VKM Y-9, Co^+2 11.25 μg/ml) | growth ([3]; VKM Y-9, Co^+2 12.5 μg/ml)
—: growth ([3]; #2-5, Co^+2 5.0 μg/ml) | growth ([3]; #2-5, Co^+2 6.25 μg/ml) | growth ([3]; #2-5, Co^+2 7.5 μg/ml) | growth ([3]; #2-5, Co^+2 8.75 μg/ml) | growth ([3]; #2-5, Co^+2 10 μg/ml) | growth ([3]; #2-5, Co^+2 11.25 μg/ml) | growth ([3]; #2-5, Co^+2 12.5 μg/ml) | growth ([3]; #4-48, Co^+2 3.75 μg/ml) | growth ([3]; #4-48, Co^+2 5.0 μg/ml) | growth ([3]; #4-48, Co^+2 6.25 μg/ml) | growth ([3]; #4-48, Co^+2 7.5 μg/ml) | growth ([3]; #4-48, Co^+2 8.75 μg/ml) | growth ([3]; #4-48, Co^+2 10 μg/ml) | growth ([3]; #4-48, Co^+2 11.25 μg/ml) | growth ([3]; #4-48, Co^+2 12.5 μg/ml) | growth ([3]; #75, Co^+2 3.75 μg/ml) | growth ([3]; #75, Co^+2 5.0 μg/ml) | growth ([3]; #75, Co^+2 6.25 μg/ml) | growth ([3]; #75, Co^+2 7.5 μg/ml) | growth ([3]; #75, Co^+2 8.75 μg/ml) | growth ([3]; #75, Co^+2 10 μg/ml) | growth ([3]; #75, Co^+2 11.25 μg/ml) | growth ([3]; #75, Co^+2 12.5 μg/ml) | growth ([3]; L20105-3-2-1, Co^+2 5.0 μg/ml) | growth ([3]; L20105-3-2-1, Co^+2 6.25 μg/ml) | growth ([3]; L20105-3-2-1, Co^+2 7.5 μg/ml) | growth ([3]; L20105-3-2-1, Co^+2 8.75 μg/ml) | growth ([3]; L20105-3-2-1, Co^+2 10 μg/ml) | growth ([3]; L20105-3-2-1, Co^+2 11.25 μg/ml) | growth ([3]; L20105-3-2-1, Co^+2 12.5 μg/ml) | growth ([3]; L20105-3-2-8, Co^+2 6.25 μg/ml) | growth ([3]; L20105-3-2-8, Co^+2 7.5 μg/ml) | growth ([3]; L20105-3-2-8, Co^+2 8.75 μg/ml) | growth ([3]; L20105-3-2-8, Co^+2 10 μg/ml) | growth ([3]; L20105-3-2-8, Co^+2 11.25 μg/ml) | growth ([3]; L20105-3-2-8, Co^+2 12.5 μg/ml) | growth ([3]; L20105-3-2-9, Co^+2 5.0 μg/ml) | growth ([3]; L20105-3-2-9, Co^+2 6.25 μg/ml) | growth ([3]; L20105-3-2-9, Co^+2 7.5 μg/ml) | growth ([3]; L20105-3-2-9, Co^+2 8.75 μg/ml) | growth ([3]; L20105-3-2-9, Co^+2 10 μg/ml) | growth ([3]; L20105-3-2-9, Co^+2 11.25 μg/ml) | growth ([3]; L20105-3-2-9, Co^+2 12.5 μg/ml) | growth ([3]; L20105-3-2-12, Co^+2 6.25 μg/ml) | growth ([3]; L20105-3-2-12, Co^+2 7.5 μg/ml) | growth ([3]; L20105-3-2-12, Co^+2 8.75 μg/ml) | growth ([3]; L20105-3-2-12, Co^+2 10 μg/ml) | growth ([3]; L20105-3-2-12, Co^+2 11.25 μg/ml) | growth ([3]; L20105-3-2-12, Co^+2 12.5 μg/ml) | growth ([3]; L20105-40-1-11, Co^+2 5.0 μg/ml) | growth ([3]; L20105-40-1-11, Co^+2 6.25 μg/ml) | growth ([3]; L20105-40-1-11, Co^+2 7.5 μg/ml) | growth ([3]; L20105-40-1-11, Co^+2 8.75 μg/ml) | growth ([3]; L20105-40-1-11, Co^+2 10 μg/ml) | growth ([3]; L20105-40-1-11, Co^+2 11.25 μg/ml) | growth ([3]; L20105-40-1-11, Co^+2 12.5 μg/ml)
